Results published in patent US9730902B2, “Polyamine transport inhibitors as novel therapeutics” (University of Central Florida Research Foundation, Inc., priority 2009, dated 2017).
Entries after “also recorded” stand apart in the source; their conditions may differ.

Assays:
SW620 cells = assay: cells; conditions: for Relative viability: human, 72 h
Procedure: The first assay implements the growth of mammalian cells in a 96 well plate format on tissue culture plates.
1.) The media contains a maximum of 2 mM aminoguanidine and a minimum of 0.25 mM aminoguanidine to prevent a cell culture artifact (i.e., degradation of native polyamines and PTI structures that contain terminal amine structures (e.g., trimer 3c) by bovine serum amine oxidases present in the cell culture media). As a general rule, aminoguanidine (AG) is not dosed at a concentration which induces 20% or more cytostasis in the cell line examined. This minimizes AG side-effects. All of the following treatments are begun 24 hours after seeding the cells.
3.) The maximum tolerated dose (MTD) of the PTI is determined by titrating it without the presence of DFMO or polyamine. The MTD is defined as the maximum concentration of the drug (e.g., PTI) that is shown to keep 100% of the cell population alive compared to the control ±10%.
(§1) This is defined as the “MTD under DFMO treatment.”
6.) The combination of DFMO, polyamine, and PTI are treated concomitantly after 24 hours of growth in a 96-well tissue culture treated plate. The duration of treatment is determined by step 2 for all three reagents. The concentration of DFMO is determined in step 2, the concentration of polyamine is determined in step 4 and the concentration of PTI is determined by step 3, the MTD. Note if the MTD of the PTI is altered by the presence of DFMO then the “MTD under DFMO treatment” is used as determined in step 6. The untreated control cells, DFMO only treatment, and DFMO+polyamine treatment, must be shown on the same plate as the experimental samples with PTI to ensure that these controls are working properly.
The first assay measures the ability of the new transport inhibitors to block rescue of DFMO-treated cells by putrescine (a native polyamine).

L3.6pl cells = assay: Block of spermidine rescue of DFMO-treated cells; format: cell-based, human
Procedure: FIG. 3 is a chart showing the block of spermidine rescue by trimer in a does dependent fashion in L3.6pl cells. […] This minimizes AG side-effects. […] The second assay measures the ability of the new transport inhibitor (the trimer 3c) to block rescue of DFMO-treated cells by spermidine. […] As shown below, the L3.6pl cells were dosed with 5 mM DFMO, which reduced their viability during the 48 hour incubation period to 60% of the control growth without DFMO (2nd column). However, these cells were rescued by the addition of exogenous spermidine (0.5 µM, 3rd column). […] However, in the presence of the trimer (i.e., the polyamine transport inhibitor 3c) we were able to block this rescue effect of spermidine (Spd) in a dose-dependent fashion (3c: 0.1 to 5 µM). For example, 3c at 2 µM in the presence of DFMO (5 mM)+spermidine (0.5 µM) gave 60% viability (7th column). Without the presence of the trimer, spermidine rescues the cells and one observes >90% viability (3rd column). The resulting data is in Table 1 and FIG. 3.

CHO-K1 cells = assay: Block of uptake of cytotoxic PAT probe Ant44 (cell rescue); format: cell-based, Chinese hamster; conditions: for PAT inhibition: block of uptake of Ant44 at non-toxic concentrations; for rescue of cells from Ant44: inhibitor at 0.1 uM; for toxicity of inhibitor to cells: inhibitor at 100 uM in the presence of Ant44 (0.5 uM)
Procedure: FIG. 6. In CHO-K1 cells, cytotoxic compound Ant44 was dosed at 0.5 μM in the presence of 2 mM aminoguanidine and either Triamide 5c or Trimer 3c at varying concentrations then incubated for 48 hours. […] Note: 5c was able to rescue the CHO cells from Ant44 but required a higher dose of 5c (1 uM). Note: […] Note that all experiments performed contained a maximum of 2 mM aminoguanidine to prevent break-down of polyamine analogues in the serum. This cell culture artifact only arises due to bovine copper-dependent serum amine oxidases which are not present in humans and are therefore not of a concern. […] This is reflective upon their low Ki values observed in L1210 cells (Phanstiel reference).
FIG. 7. In CHO-K1 cells, the PAT-selective cytotoxic agent Ant44 was dosed at 0.5 μM in the presence of Trimer 3c at varying concentrations (in nM) and incubated for 48 hours. Note that 2 mM aminoguanidine was added to the media to blockade degradation by serum amine oxidases.
In this manner, the PTI (e.g. 1 uM) dosed at completely non-toxic concentrations was able to block the uptake of the toxic Ant44 compound (Ant44 dosed at its IC50 value, 0.5 uM). […] These experiments (FIGS. 6 and 7) were done in Chinese hamster ovary cells (CHO-K1) cells.

[1] = system: L3.6pl metastatic pancreatic cancer; assay: Block of putrescine rescue of DFMO-treated cells; format: cell-based, human
Procedure: The MTD of 3c in this cell line is 5 μM. All treatments (DFMO, putrescine, and 3c) were dosed simultaneously and for a duration of 72 hours.
The MTD of 3c in this cell line is 5 μM. All treatments (DFMO, putrescine, and 3c) were dosed simultaneously and for a duration of 48 hours.

[2] = system: MiaPaca-2 pancreatic cancer; assay: Block of putrescine rescue of DFMO-treated cells; format: cell-based, human
Procedure: The MTD under DFMO treatment of 3c in this cell line is 1 μM and as such the therapy became toxic at 2 μM. If the therapy is not toxic to normal cells, then this therapy is also valid for concentrations above 1 μM. All treatments (DFMO, putrescine, and 3c) were dosed simultaneously and for a duration of 96 hours.

[3] = system: L3.6pl metastatic pancreatic cancer; assay: Maximum tolerated dose (MTD) of the PTI; format: cell-based; conditions: L3.6pl cell line
[4] = system: MiaPaca-2 pancreatic cancer; assay: MTD under DFMO treatment; format: cell-based
Description: as §1

import of putrescine = assay: Selectivity of blocking import of native polyamines; format: cell-based; conditions: putrescine versus spermidine and spermine, at the dosage used
SW480 = assay: Response of cell growth to DFMO; format: cell-based
RKO = assay: Response of cell growth to DFMO; format: cell-based
HCT-116 = assay: Response of cell growth to DFMO; format: cell-based
Panc-1 = assay: Response of cell growth to DFMO; format: cell-based

## NCCCCNCCCCNCc1cc(CNCCCCNCCCCN)cc(CNCCCCNCCCCN)c1 [3c, N-(4-Amino-butyl)-N′-(3,5-bis-{[4-(4-amino-butylamino)-butylamino]-methyl}-benzyl)-butane-1,4-diamine]
SW620 cells; 0.1 uM
  Relative viability: 100%
SW620 cells; 0.5 uM
  Relative viability: 75%
L3.6pl cells; 5 mM DFMO + 0.5 uM Spd + trimer 0.1, 48 hour
  % Viability: 90%
L3.6pl cells; 5 mM DFMO + 0.5 uM Spd + trimer 0.5, 48 hour
  % Viability: 88%
L3.6pl cells; 5 mM DFMO + 0.5 uM Spd + trimer 1, 48 hour
  % Viability: 73%
L3.6pl cells; 5 mM DFMO + 0.5 uM Spd + trimer 2, 48 hour
  % Viability: 60%
L3.6pl cells; 5 mM DFMO + 0.5 uM Spd + trimer 3, 48 hour
  % Viability: 53%
L3.6pl cells; 5 mM DFMO + 0.5 uM Spd + trimer 5, 48 hour
  % Viability: 45%
CHO-K1 cells; Ant44 0.5 uM, 2 mM aminoguanidine, 48 hours, further titration
  concentration able to protect CHO-K1 cells from Ant44: 80 nM
CHO-K1 cells
  PAT inhibition: potent PAT inhibitors
  toxicity of inhibitor to cells: moderate toxicity
CHO-K1 cells; Ant44 0.5 uM, 48 hours
  rescue of cells from Ant44: complete rescue
[1]; competing with 0.5 μM of putrescine, 48 hours
  concentration from which treatment is effective: 0.5 µM
[1]; competing with 1 μM of putrescine, 72 hours
  concentration from which treatment is effective: 1 µM
[2]; 0.5 μM of 3c, 0.5 μM of putrescine, DFMO, 96 hours
  treatment effect: incomplete but effective treatment
[2]; competing with 0.5 μM of putrescine, with DFMO, 96 hours
  concentration from which treatment is effective: 1 µM
[3]
  MTD: 5 µM
[4]; MiaPaca-2, 96 hours
  MTD under DFMO treatment: 1 µM
[4]; MiaPaca-2, with DFMO, 96 hours
  concentration at which the therapy became toxic: 2 µM

## NCCCCNCCCCNC(=O)c1cc(C(=O)NCCCCNCCCCN)cc(C(=O)NCCCCNCCCCN)c1 [5c, Benzene-1,3,5-tricarboxylic acid tris-{[4-(4-amino-butylamino)-butyl]-amide}]
CHO-K1 cells; Ant44 0.5 uM, 48 hours
  dose required to rescue the CHO cells from Ant44: 1 µM
  rescue of cells from Ant44: unable to rescue
CHO-K1 cells
  PAT inhibition: potent PAT inhibitors
  toxicity of inhibitor to cells: moderate toxicity
Import of putrescine
  selectivity of blocking import of native polyamines: selectively blocks import of putrescine; also recorded: specific for putrescine

## NCCCCNCCCCNCc1c2ccccc2cc2ccccc12 [Ant44, anthracen-9-ylmethyl-homospermidine conjugate, reference compound]
CHO-K1 cells; Ant44 0.5 uM without PAT inhibitor, 2 mM aminoguanidine, 48 hours
  viability relative to untreated CHO-K1 cells: 40%
CHO-K1 cells; cytotoxicity of Ant44, CHO-K1
  IC50: 500 nM

## NCCCCN [Putrescine, putrescine, reference compound]
SW620 cells; Homo sapiens, SW-620, 72 h, read-out: Relative viability
  viability at 1 µM: 100%

## NCCCCNCCCN [spermidine, reference compound]
L3.6pl cells; 5 mM DFMO + 0.5 uM Spd, no trimer, 48 hour
  % Viability: > 90%
L3.6pl cells; 5 mM DFMO + 0.5 uM Spd, no trimer, 48 hour, listed as Spd
  % Viability: 91%

## difluoromethylornithine [DFMO]
SW620 cells; DFMO (1 mM), MTS assay
  reduction in growth: 50%
[2]; 48, 72 and 96 hours
  DFMO reduction in cell growth: time dependent
SW480
  response to DFMO: respond to DFMO in a time dependent matter
RKO
  response to DFMO: respond to DFMO in a time dependent matter
HCT-116
  response to DFMO: respond to DFMO in a time dependent matter
Panc-1
  response to DFMO: respond to DFMO in a time dependent matter
